Assay results reported in PubChem BioAssay (NCI).
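Five concentrations, 48 hours, 96-well plates. GI50 is the concentration that inhibits growth by half. TGI denotes the concentration required for complete inhibition of growth.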

How the values were obtained:
Assay in all cases: NCI-60 cell line screen, 48 h
ACHN renal = test system: ACHN renal
HCC-2998 colon = test system: HCC-2998 colon
HCT-15 colon = test system: HCT-15 colon
MALME-3M melanoma = test system: MALME-3M melanoma
MOLT-4 leukemia = test system: MOLT-4 leukemia
OVCAR-8 ovarian = test system: OVCAR-8 ovarian
SF-295 CNS = test system: SF-295 CNS
SN12C renal = test system: SN12C renal
SNB-75 CNS = test system: SNB-75 CNS
UACC-62 melanoma = test system: UACC-62 melanoma

Compound | TGI (ACHN renal) | TGI (HCC-2998 colon) | TGI (HCT-15 colon) | TGI (MALME-3M melanoma) | TGI (MOLT-4 leukemia) | TGI (OVCAR-8 ovarian) | TGI (SF-295 CNS) | TGI (SN12C renal) | TGI (SNB-75 CNS) | TGI (UACC-62 melanoma) | GI50 (ACHN renal) | GI50 (HCC-2998 colon) | GI50 (HCT-15 colon) | GI50 (MALME-3M melanoma) | GI50 (MOLT-4 leukemia) | GI50 (OVCAR-8 ovarian) | GI50 (SF-295 CNS) | GI50 (SN12C renal) | GI50 (SNB-75 CNS) | GI50 (UACC-62 melanoma)
O=C(O)[C@H](c1ccccc1)[C@@H](C(=O)O)c1ccccc1 | > 100 µM | > 100 µM | > 100 µM | > 100 µM | > 100 µM | > 100 µM | > 100 µM | > 100 µM | > 100 µM | > 100 µM |  |  |  |  |  |  |  |  |  | 
O=C(N/N=C/c1ccccc1O)c1ccccc1 | 54.2 µM | 8.34 µM | > 100 µM | 46.7 µM | > 100 µM | > 100 µM | 52.1 µM | > 100 µM | > 100 µM | 7.16 µM | 2.08 µM | 0.6 µM | 0.893 µM | 4.26 µM | 0.503 µM | 3.46 µM | 1.1 µM | 2.45 µM | 3.5 µM | 1.87 µM
COc1cc(NCCCCCCCNC(C)C)c2nccc(C)c2c1 | 27.8 µM | 19 µM | 27.3 µM | 34.8 µM | 23 µM | 33.5 µM | 29.6 µM | 25.7 µM | 24.3 µM | 17.6 µM | 14.2 µM | 6.29 µM | 12.2 µM | 17.3 µM | 6.95 µM | 15.2 µM | 14.1 µM | 12.2 µM | 11.7 µM | 4.88 µM
COC(=O)C1=Nc2c(C)nn(-c3ccccc3)c2N=C(c2ccccc2)C1 | > 10 µM | > 10 µM | > 10 µM | > 10 µM | > 10 µM | > 10 µM | > 10 µM | > 10 µM | > 10 µM | > 10 µM |  |  |  |  |  |  |  |  |  | 
CN(C)C(=S)/N=c1\ssc(=S)n1Cc1ccncc1 | 93.1 µM | 57.3 µM | 55.1 µM | 50.2 µM | 49.3 µM | 68.9 µM | 83.8 µM | > 100 µM | 58.5 µM | 25.5 µM |  |  |  |  |  |  |  |  |  | 
C=C1C(=O)O[C@H]2[C@H]1CC/C(COC(=O)NCC(C)c1ccc(CC(C)C)cc1)=C\CC[C@@]1(C)O[C@@H]21 (stereo partly drawn) | 1.32 µM | 6.72 µM | 1.27 µM | 2.89 µM | 3.05 µM | 6.87 µM | 8.69 µM | 4.14 µM | 5.48 µM | 2.35 µM | 0.623 µM | 2.17 µM | 0.595 µM | 0.926 µM | 0.974 µM | 1.94 µM | 4.44 µM | 1.06 µM | 1.21 µM | 0.751 µM
CCCCN(CC)CC(C(C)=O)c1c(O)c2ccccc2oc1=O (stereo not drawn) | > 100 µM | > 100 µM | > 100 µM | > 100 µM | > 100 µM | > 100 µM | > 100 µM | > 100 µM | > 100 µM | > 100 µM |  |  |  |  |  |  |  |  |  | 
Cc1cc(N(CCC#N)CCC#N)ccc1/C=C(\NC(=O)/C=C/c1ccccc1)C(=O)NN | > 100 µM | > 100 µM | > 100 µM | > 100 µM | > 100 µM | > 100 µM | > 95.6 µM | > 100 µM | > 62.9 µM | > 100 µM |  |  |  |  |  |  |  |  |  | 
CCOC(=O)C1SC(=Nc2ccc(Cl)cc2)N=C1C (stereo not drawn) | 49.7 µM | 31.5 µM | 30 µM | 35.9 µM | 48.8 µM | 43.3 µM | 34.9 µM | 31.3 µM | 44.7 µM |  |  |  |  |  |  |  |  |  |  | 
O=C(O)c1ccc(C2C(=O)N[C@@H]3CCC[C@H]23)cc1 (stereo partly drawn) |  | > 100 µM | > 100 µM | > 100 µM | > 100 µM | > 100 µM | > 100 µM |  | > 100 µM | > 100 µM |  |  |  |  |  |  |  |  |  | 
Nc1ncnc2c1ncn2CC(O)CO (stereo not drawn) |  | > 100 µM | > 100 µM | > 100 µM | > 100 µM | > 100 µM | > 100 µM | > 100 µM | > 100 µM | > 100 µM |  |  |  |  |  |  |  |  |  | 
COc1ccc(C(=O)c2ccc([As]=O)cc2)cc1 (stereo not drawn) | 0.119 µM | 0.246 µM | 0.11 µM | 0.0861 µM | 0.265 µM | 0.203 µM | 0.285 µM | 0.199 µM | 0.417 µM |  | 0.0333 µM | 0.113 µM | 0.0259 µM | 0.0281 µM | 0.0389 µM | 0.0617 µM | 0.146 µM | 0.0418 µM | 0.126 µM | 
CCCCN(CCCC)C(=O)/C(CC(=O)c1cccc2ccccc12)=N\NC(=O)c1cc2ccccc2cc1O | 78.7 µM | 43.8 µM |  | 35.4 µM | 42.9 µM | > 100 µM | 92.7 µM | 52.6 µM | 92.7 µM | 23.3 µM |  |  |  |  |  |  |  |  |  | 
